The test system of assay [1] is E. coli HM22 persister cells. Put plainly: ROS accumulation (H2DCFDA fluorescence) and CFU count of E. coli HM22 persister cells treated with current and/or H2O2. In kind it is cell-based. As for the experimental part: Thus, the treatment could render the persister cells more susceptible to external ROS. To test this hypothesis, we treated E. coli HM22 persister cells with 100 μA for 20 min and followed by treatment with and without H2O2 (500 μM) for 1 h. These cells were then split into two parts: one for microscopic analysis and the other for CFU count. For microscopic study, cells were treated with 200 μM dichlorodihydrofluorescein diacetate (H2DCFDA, Sigma-Aldrich, St. Louis, Mo.) for 30 min in dark at room temperature. After incubation, cells were spin down and resuspended in PBS buffer for visualization using a fluorescence microscope (Axio Imager M1, ZEISS, Jena, Germany). The dye H2DCFDA can penetrate bacterial cells and get cleaved by cellular esterase to produce H2DCF. If there is any ROS present, this H2DCF will be converted to DCF and give fluorescence (Invitrogen, USA). […] For the CFU count, cells were plated on LB plates supplemented with DPA and incubated overnight at 37° C.

The test system of the next assay is P. aeruginosa PAO1. The settings on record: ciprofloxacin up to 200 μg/mL, 3.5 h, overnight culture.
Assay [2] deals with P. aeruginosa PAO1 persister cells. Put plainly: Killing of P. aeruginosa PAO1 persister cells by tobramycin with electric current or pretreated buffer (CFU count). It counts as cell-based. As for the experimental part: Thus, the 1% cells that survived the treatment were persister cells and treatment with 200 μg/mL Cip was used in the following experiments to harvest persister cells and ensure the complete killing of normal cells.
However, treatment with 75 μA/cm^2 (500 μA total) current reduced the number of viable persisters by ˜2.5 logs and another 2 logs of killing was obtained when treating with Tob together, as shown in FIG. 12. […] This is a significant advantage compared to traditional antibiotics, which commonly fail to kill bacterial cells that are in stationary phase or are persisters.
To understand if the killing by electric currents was due to the ions generated by electrochemical reactions, P. aeruginosa PAO1 persister cells were also treated with pretreated buffer, which was prepared by treating 0.85% NaCl buffer with SS304 stainless steel electrodes for the same current level and duration as used for the above experiments. The pretreated buffers were collected after 20, 40 or 60 min of treatment. P. aeruginosa PAO1 persister cells were collected as described above and resuspended in the pretreated buffers in the presence and absence of Tob. The cells were then incubated at room temperature without shaking for up to 1 h and samples were collected every 20 min to count CFU. […] The generation of ROS as described in E. coli HM22 data could be partially responsible for the killing. In addition, no synergy was observed between pretreated buffer and 1.5 μg/mL Tob.

Assay [3] concerns E. coli HM22 persister cells. It counts as cell-based. The settings on record: 0.85% NaCl buffer. As for the experimental part: To evaluate the effects of electric currents, the persister cells were first isolated as described previously. Briefly, the exponential culture of HM22 at optical density at 600 nm (OD600) of 0.3 in LB medium was treated with 100 μg/mL ampicillin for 3 h to kill and lyse the normal cells. The persister cells were then collected by centrifugation at 8000 rpm at 4° C. for 10 min and resuspended in 0.85% NaCl buffer. Electrodes with a dimension of 1 cm×5.6 cm were cut from a flat 304L stainless steel sheet (MSC; Melville, N.Y.) or graphite sheet (McMaster-CARR, Santa Fe Springs, Calif.). The same material was used for both the counter electrode and working electrode, which were placed into a 4.5 mL standard-style polystyrene cuvette (Fisher Scientific; Hampton, N.H.). A 0.48 mm diameter silver wire (A-M Systems; Sequim, Wash.) was placed in bleach for 30 min to produce an Ag/AgCl reference electrode. The bottom 1″ of a borosilicate glass Pasteur pipette (Fisher) was cut and the reference wire was placed inside to prevent contact with the working or counter electrode. An AFCBP1 potentiostat/galvanostat (Pine Instrument Company, Grove City, Pa.) was connected via alligator clamps to the electrodes and used to control the current. The volume of medium in the fully-constructed electrochemical cell was 3 mL (see FIG. 2).

Another assay has as its system E. coli HM22 biofilms. Kind of assay: Killing of E. coli HM22 biofilm cells on 304L stainless steel coupons by tobramycin and/or direct current (CFU count). It counts as cell-based. As for the experimental part:
To determine if electric currents are also effective in killing persister cells in biofilms, E. coli HM22 biofilms were cultured on 304L stainless steel coupons. The biofilm-coated coupons were then used as anodic or cathodic electrode, and treated with direct current alone or with tobramycin together. Immediately after treatment, the cells were removed from the biofilm-coated coupons by sonication and vertexing. A portion of the cells was directly plated on LB+DPA plates to quantify the total number of viable cells by counting CFU, the other part of the sample was treated with 100 μg/mL ampicillin for another 3 h and plated on LB+DPA plates to quantify the number of the viable persister cells. This approach allowed us to study the killing effects on normal and persister cells separately.
However, treatments with 75 μA/cm^2 alone for 60 min reduced the number of viable persister cells by 3.5 logs. After treating biofilms with currents and tobramycin together for 60 min, the number of viable persister cells was reduced by 5.4 log (nearly complete killing, FIG. 4). Thus, synergy between electric currents and antibiotics also exist for killing persister cells in biofilms.

The test system of the next assay is P. aeruginosa PAO1 cells. Kind of assay: Killing of P. aeruginosa PAO1 cells at exponential phase by tobramycin and/or electric current (CFU count). It counts as cell-based. As for the experimental part: Continued experiments, for example, have already shown that the effects of electric current and synergy with antibiotics is not species specific, as similar results were shown using P. aeruginosa. The experiments were conducted in the same way as described for E. coli HM22. Briefly, an overnight culture of P. aeruginosa PAO1 was used to inoculate LB medium to an OD600 of ˜0.005 (1:1000 dilution of an overnight culture with LB) and incubated till OD600 reached ˜0.7. Then the cells were washed twice with 0.85% NaCl buffer and treated in the same way as described for planktonic E. coli cells. […] Treatment with 75 μA/cm^2 for 60 min reduced the number of viable P. aeruginosa PAO1 cells by 3 logs.

The next assay concerns B. subtilis 168. The settings on record: reported in the literature; cited from earlier work.
Assay [4] deals with planktonic B. subtilis BE1500. Put plainly: Minimum inhibitory concentration of ampicillin on planktonic cells (OD600, 96-well plate). In kind it is cell-based. The settings on record: Bacillus subtilis; LB medium, 24 hours, 37° C. As for the experimental part: Determination of Minimum Inhibitory Concentration and Minimum Bactericidal Concentrations. To determine the minimum inhibitory concentrations (MICs) of ampicillin on planktonic cells, B. subtilis 168 and B. subtilis BE1500 were cultured in LB medium overnight as described above. The overnight cultures were subcultured by a 1:1000 dilution in LB medium containing various concentrations of ampicillin with seven replicates in a 96-well plate and allowed to grow at 37° C. with shaking at 200 rpm for 24 hours. The OD600 was measured immediately after inoculations and at 24 hours after inoculation with a microplate reader (Model EL808, BioTek Instruments, Winooski, Vt.).

Assay [5] concerns B. subtilis BE1500 biofilms. Put plainly: Treatment of B. subtilis BE1500 biofilms with ampicillin and/or DC (CFU count). In kind it is cell-based. As for the experimental part: MIC is not a useful measurement of the response of biofilms to antibiotics because antibiotics added in the growth medium before inoculation could kill planktonic cells before they can form a biofilm. Therefore it is important to characterize the minimum bactericidal concentration (MBC) of ampicillin on established biofilms. B. subtilis BE1500 was cultured overnight as described above. Flat stainless steel electrodes were placed in a 100 mm petri dish with 20 mL LB medium, which was inoculated with 20 μL of an overnight culture. Biofilms were allowed to develop for 48 hours at 37° C. without shaking. The electrodes with biofilms were gently washed three times in 0.85% NaCl buffer and immersed in LB medium containing various concentrations of ampicillin for 15 min. Immediately after treatment, the electrodes with biofilms were placed in a 15 mL polystyrene test tube (Fisher Scientific) containing 4 mL 0.85% NaCl buffer and sonicated for 2 min to remove the biofilm cells from the surface. The stainless steel electrode was then removed and the tube was vortexed for 30 s to break up any remaining cell clusters. CFUs were counted after spreading the buffer with cells on LB agar plates and incubated overnight at 37° C.
Treatment of Biofilm Cultures with Ampicillin and DC. B. subtilis BE1500 biofilms were prepared as described for MBC experiments. Prior to treatment, biofilms were gently washed three times with 0.85% NaCl buffer. Each stainless steel coupon with biofilm was placed as the working electrode in the electrochemical cell cuvette shown in FIG. 16. Prior to placing the electrode with biofilm in the cuvette, 3 mL LB medium was added to the cuvette to prevent the biofilm from drying out. Samples were treated for 15 min with 0, 25, 83 and 250 μA/cm^2. Immediately after treatment, the biofilms were placed in a 15 mL polystyrene test tube containing 4 mL 0.85% NaCl buffer and sonicated for 2 min to remove the biofilm from electrode. The stainless steel electrode was then removed and the tube containing the cells and buffer was vortexed for 30 s to break up any remaining cell clusters. Cell densities were determined by plating the cultures on LB/agar plates and counting CFUs. The effect of current-generated ions was tested in the same way except that the cells were incubated in pre-treated LB in the absence of a current.

Where [6] appears, read: tobramycin alone, 20 μg/mL or 150 μg/mL, compared to untreated control.

The values below come from US8663914B2, “System and method for controlling bacterial cells with weak electric currents” (Syracuse University, priority 2009, dated 2014).

≈ marks a conversion by molar mass, not a printed value. Like-named read-outs stand apart in the source and are kept apart here. A value given as a limit tells only on which side of the number the result lay.

With `OO` [H2O2], in assay [1] (H2O2 500 μM, 1 h, H2DCFDA fluorescence), the “accumulation of ROS in persister cells” value is reported as “caused accumulation of ROS”. In addition, the “killing of persister cells (CFU)” value in [1] (electric current (100 μA, 20 min) followed by H2O2 500 μM for 1 h, versus either alone) was “killed more persister cells than either the EC or H2O2 alone”.

As for `O=C(O)c1cn(C2CC2)c2cc(N3CCNCC3)c(F)cc2c1=O` [ciprofloxacin], the “cells that survived the treatment” value in the assay with P. aeruginosa PAO1 amounted to 1%.

As to `NC[C@H]1O[C@H](O[C@H]2[C@H](O)[C@@H](O[C@H]3O[C@H](CO)[C@@H](O)[C@H](N)[C@H]3O)[C@H](N)C[C@@H]2N)[C@H](N)C[C@@H]1O` [tobramycin], the “killing of persister cells” value in assay [2] (1.5 μg/mL Tob alone) was “not able to kill”. For the same molecule, the “synergy between pretreated buffer and Tob” value in assay [2] (1.5 μg/mL Tob in 0.85% NaCl buffer pretreated with SS304 electrodes, no current, up to 1 h) is “no synergy”. In addition, the “additional killing of persister cells beyond current alone” value in assay [2] (1.5 μg/mL Tob together with 75 μA/cm^2 (500 μA total) current) was found to be 2 logs. Further, the “synergy with electric current in killing persister cells” value in assay [3] (tobramycin with 75 μA/cm^2 DC, graphite electrodes) is “synergistic effect”. The “reduction of number of viable persister cells in biofilm” value in the assay on E. coli HM22 biofilms (currents (75 μA/cm^2 DC) and tobramycin (20 μg/mL) together for 60 min) is on record as 5.4 log. In addition, in the assay with E. coli HM22 biofilms (setting [6]), the “reduction in number of viable persister cells in biofilm” value is listed as “no significant reduction” and the “reduction in total number of viable cells in biofilm” value was “no significant reduction”. The “killing of viable cells” value in the assay on P. aeruginosa PAO1 cells (1.5 μg/mL Tob alone, 0.85% NaCl buffer) was “did not cause any significant killing”. The “killing of viable cells” value with P. aeruginosa PAO1 cells (1.5 μg/mL Tob combined with 75 μA/cm^2 for 60 min) was “up to 5 logs”.

Take `CC1(C)S[C@@H]2[C@H](NC(=O)[C@H](N)c3ccccc3)C(=O)N2[C@H]1C(=O)O` [ampicillin]: the minimal inhibitory concentration (MIC) (usually the lowest concentration that inhibits growth of the organism) with B. subtilis 168 was 0.2 mg/L (≈ 0.572 µM); in assay [4], at most 2 mg/L. Moreover, the “change in killing on adding ampicillin to current” value in assay [5] (50 μg/mL ampicillin and 500 μA current, graphite electrodes, chlorine-free M56 buffer, versus current alone) is given as “slight decrease in killing”. For the same molecule, in [5] (1000 μg/mL ampicillin alone for 15 min), the biofilm cells killed came to 59%. Also, the “synergy of DC and ampicillin on biofilms” value in [5] (83 μA/cm^2 DC and ampicillin together, stainless steel electrodes) is on record as “no apparent synergy”. Also, the inhibition at 50 µg/mL stood at 44% in assay [5] (Bacillus subtilis, BE1500BIOFILMS, 0.25 h, 50 μg/mL ampicillin with 500 μA DC current, 15 min, graphite electrodes, read-out: decrease in cell viability) and 93% in assay [5] (Bacillus subtilis, BE1500BIOFILMS, 0.25 h, read-out: decrease in cell viability, 50 μg/mL ampicillin with 83 μA/cm^2 (500 μA) DC, 15 min, 37° C., stainless steel electrodes, LB, versus antibiotic alone). Moreover, in assay [5] (Bacillus subtilis, BE1500BIOFILMS, 0.25 h, 100 μg/mL ampicillin with 83 μA/cm^2 DC, 15 min, 37° C., stainless steel electrodes, versus antibiotic alone, read-out: decrease in cell viability), the inhibition at 100 µg/mL turned out to be 79%. Besides, in assay [5] (Bacillus subtilis, BE1500BIOFILMS, 0.25 h, 1000 μg/mL ampicillin with 83 μA/cm^2 DC, 15 min, 37° C., stainless steel electrodes, versus antibiotic alone, read-out: decrease in cell viability), the inhibition at 1000 µg/mL amounted to 86%. Moreover, the viability (in general, a per cent measure of how many cells are alive, often set against a control) at 50 µg/mL in assay [5] (Bacillus subtilis, BE1500BIOFILMS, 50 μg/mL ampicillin with 500 μA DC current, graphite electrodes, chlorine-free M56 buffer, read-out: viability of biofilm cells (untreated control normalized as 100%)) came to 74%.

Take `CCn1nc(C(=O)O)c(=O)c2cc3c(cc21)OCO3` [cinoxacin]: the “reduction in the number of viable persister cells” value in [3] (20 μg/mL cinoxacin alone, graphite electrodes cell, 60 min) was “no apparent reduction”; in assay [3] (20 μg/mL cinoxacin together with 75 μA/cm^2 current, graphite electrodes), “more than 5 log”.
